Experiment: solubility test of organometallic complexes in various solvents
Type: physicochemical
Details: for solubility x in anisole: solvent having aromatic ring: anisole; for solubility x in toluene: solvent having aromatic ring: toluene; for solubility x in 2-ethoxyethanol / solubility x in ethanol / solubility x in isopropanol / solubility x in methanol / solubility x in diethyl ether: solvent not having aromatic ring; for solubility x in 2-ethoxyethanol: alcohol: 2-ethoxyethanol; for solubility x in ethanol: alcohol: ethanol; for solubility x in isopropanol: alcohol: isopropanol; for solubility x in methanol: alcohol: methanol
Description: In Example 1, the solubility of an organometallic complex having a pyrazine skeleton as described in Embodiment Mode 1 was evaluated. The evaluation was performed by examining the solubility in various solvents. For the solvent, toluene and anisole were each used as a solvent having an aromatic ring. Further, diethyl ether which is ether, and 2-ethoxyethanol, isopropanol, ethanol, and methanol which are alcohols were each used as a solvent not having an aromatic ring.
In addition, the solubility of btp2Ir(acac) (a structural formula (101) given below), which is disclosed in Nonpatent Document 1 was evaluated as a comparative sample A. In addition, the solubility of Ir(ppy)2(acac) (a structural formula (102) given below) was evaluated as a comparative sample B.

Row | Structure (SMILES) | solubility x in anisole | solubility x in toluene | solubility x in 2-ethoxyethanol | solubility x in ethanol | solubility x in isopropanol | solubility x in methanol | solubility x in diethyl ether
1 | CC(=O)C=C(C)[O-].[Ir+3].[c-]1ccccc1-c1nccnc1-c1ccccc1.[c-]1ccccc1-c1nccnc1-c1ccccc1 [Sample 1] | ⊚ (a double circle in the case of x≧1.2) | ◯ (a circle in the case of 1.2>x≧0.9) | X (a cross in the case of x<0.6) | X (a cross in the case of x<0.6) | X (a cross in the case of x<0.6) | X (a cross in the case of x<0.6) | X (a cross in the case of x<0.6)
2 | CC(=O)C=C(C)[O-].Fc1c[c-]c(-c2nccnc2-c2ccc(F)cc2)cc1.Fc1c[c-]c(-c2nccnc2-c2ccc(F)cc2)cc1.[Ir+3] [Sample 2] | ⊚ (a double circle in the case of x≧1.2) | ◯ (a circle in the case of 1.2>x≧0.9) | X (a cross in the case of x<0.6) | X (a cross in the case of x<0.6) | X (a cross in the case of x<0.6) | X (a cross in the case of x<0.6) | X (a cross in the case of x<0.6)
3 | CC(=O)C=C(C)[O-].Cc1cnc(-c2[c-]cc(F)cc2)c(-c2ccc(F)cc2)n1.Cc1cnc(-c2[c-]cc(F)cc2)c(-c2ccc(F)cc2)n1.[Ir+3] [Sample 4] | ⊚ (a double circle in the case of x≧1.2) | ⊚ (a double circle in the case of x≧1.2) | ⊚ (a double circle in the case of x≧1.2) | X (a cross in the case of x<0.6) | X (a cross in the case of x<0.6) | X (a cross in the case of x<0.6) | ⊚ (a double circle in the case of x≧1.2)

More lines, now with the values ahead:

Row | solubility x in anisole | solubility x in toluene | solubility x in 2-ethoxyethanol | solubility x in ethanol | solubility x in isopropanol | solubility x in methanol | solubility x in diethyl ether | Structure (SMILES)
4 | ⊚ (a double circle in the case of x≧1.2) | ⊚ (a double circle in the case of x≧1.2) | ⊚ (a double circle in the case of x≧1.2) | Δ (a triangle in the case of 0.9>x≧0.6) | Δ (a triangle in the case of 0.9>x≧0.6) | X (a cross in the case of x<0.6) | ⊚ (a double circle in the case of x≧1.2) | CC(=O)C=C(C)[O-].Cc1nc(C(C)C)cnc1-c1[c-]cccc1.Cc1nc(C(C)C)cnc1-c1[c-]cccc1.[Ir+3] [Sample 9]
5 | ⊚ (a double circle in the case of x≧1.2) | ⊚ (a double circle in the case of x≧1.2) | ⊚ (a double circle in the case of x≧1.2) | ⊚ (a double circle in the case of x≧1.2) | ⊚ (a double circle in the case of x≧1.2) | X (a cross in the case of x<0.6) | X (a cross in the case of x<0.6) | Cc1cnc(-c2[c-]cc(F)cc2)c(-c2ccc(F)cc2)n1.Cc1cnc(-c2[c-]cc(F)cc2)c(-c2ccc(F)cc2)n1.O=C([O-])c1ccccn1.[Ir+3] [Sample 5]
6 | ⊚ (a double circle in the case of x≧1.2) | ⊚ (a double circle in the case of x≧1.2) | ⊚ (a double circle in the case of x≧1.2) | X (a cross in the case of x<0.6) | X (a cross in the case of x<0.6) | X (a cross in the case of x<0.6) | ⊚ (a double circle in the case of x≧1.2) | CC(=O)C=C(C)[O][Ir]([c]1ccccc1-c1ncc(-c2ccccc2)nc1-c1ccccc1)[c]1ccccc1-c1ncc(-c2ccccc2)nc1-c1ccccc1 [Sample 10, (acetylacetonato)bis(2,3,5-triphenylpyrazinato)iridium(III)]
7 | ⊚ (a double circle in the case of x≧1.2) | ⊚ (a double circle in the case of x≧1.2) | ⊚ (a double circle in the case of x≧1.2) | X (a cross in the case of x<0.6) | X (a cross in the case of x<0.6) | X (a cross in the case of x<0.6) | X (a cross in the case of x<0.6) | CC(C)c1cnc(-c2[c-]cc(F)cc2)c(-c2ccc(F)cc2)n1.CC(C)c1cnc(-c2[c-]cc(F)cc2)c(-c2ccc(F)cc2)n1.O=C([O-])c1ccccn1.[Ir+3] [Sample 7]

Reference: patent US20080233432A1, “Composition, Method for Fabricating Light-Emitting Element, Light-Emitting Element, Light-Emitting Device, and Electronic Device” (Semiconductor Energy Laboratory Co., Ltd., priority 2007, published 2008)
